# Source: publication PMC11251039, “Harnessing cholesterol uptake of malaria parasites for therapeutic applications” (EMBO Molecular Medicine, 2024)
# “And” between values parts separate entries of the source, which are not always exact repeats. Equal entries are not always repeated.
# Key:
# [1] = system: P. falciparum stage III–IV gametocytes; assay: P. falciparum gametocyte viability assay (MitoTracker, flow cytometry), stage III-IV; format: cell-based, Plasmodium falciparum; conditions: 48 h; for Gametocyte stage III-IV viability, percentage of control: replicate values, source data Fig. 2C, listed as BC5B
# Experimental: Gametocyte assays commenced seven days (stage III–IV) or ten days (stage V) post-invasion. […]
# Plasmodium falciparum Gametocyte Viability Assays:
# Asexual P. falciparum parasites were induced to form gametocytes as described (21).
# Synchronized trophozoite-stage parasites at 2% parasitaemia were incubated overnight and […]
# haematocrit maintained at 4%. On the subsequent day (designated as day 0) of gametocytogenesis, the culture containing early ring-stage parasites was first purified by sorbitol synchronisation to remove asynchronous trophozoites, and passed through a magnetic field in a sterile MACS® column in a SuperMACSTM II magnet to remove remaining late-stage parasites or later-stage gametocytes (negative selection). The culture medium was supplemented with 50 mM N-acetyl-D-glucosamine to inhibit asexual parasite proliferation, and changed daily. Sorbitol treatment was performed on Day 1, 5, and 6 to further remove asexual parasites. Gametocytes were magnetically enriched (positive selection) in a sterile column with a SuperMACSTM II magnet and eluted in culture media with 50 mM N-acetyl-D-glucosamine. These gametocytes were incubated overnight at 37 °C under microaerophilic conditions, and purity was assessed by examination under a light microscope (400× […]
# Gametocyte viability was assessed as described by Ridgway et al. (21) with modifications.
# Compounds or solvent controls (DMSO) were serially diluted across 96-well plates in culture media supplemented with 50 mM N-acetyl-D-glucosamine. Culture media without compound was used as a negative control. […]
# control to determine background gametocyte fluorescence. Stage III-IV gametocytes (Day 7) or stage V (day 10) gametocytes were concentrated and added to the plate with 200 µL per well. The plate was incubated for 48 hours at 37 °C under humid microaerophilic conditions.
# Parasites were then stained with 500 nM MitoTrackerTM Deep Red FM and 5 μg/ml Hoechst […]
# cytometer as described above. […]
# excluded. Live (positive) and dead (negative) gametocytes were differentiated by […]
# percentage of each was calculated. […]
# [2] = system: human embryonic kidney cells (HEK293); assay: Human embryonic kidney cell viability assay (MTT); format: cell-based; conditions: Homo sapiens; 96 h, HEK293; read-out: IC50, human embryonic kidney cell inhibition (viability)
# Experimental: HEK293 cell viability assays commenced with 5000 cells per well. 10 µg/mL cycloheximide was used as a no-growth control. Metabolic capacity (indicating viability) was measured in an absorbance microplate reader after incubation with 0.45 mg/mL methylthiazolyldiphenyl-tetrazolium bromide (MTT; Sigma M2128) for 2 h followed by crystal solubilisation in SDS. […]
# Human Embryonic Kidney Cell Viability Assays:
# Human Embryonic Kidney Cell (HEK293) culture:
# The HEK293 cell line was maintained under routine culture conditions in DMEM containing 3.7 g/L NaHCO3 supplemented with 10% FBS, 200 μM glutamine, 100 units/mL penicillin, and 100 μg/mL streptomycin at 37 °C in a humidified 5% CO2 incubator.
# Cells were detached from a flask using 0.25% Trypsin with 0.2 g/L EDTA (Sigma T4049) and washed with culture media containing no phenol red. Cells were incubated with a serial dilution of each compound, or media/DMSO alone. The protein synthesis inhibitor cycloheximide (Sigma 01810) at 10 µg/mL was used as a positive control to determine background absorbance. 5,000 cells were seeded in each well. After 96 hours, 0.45 mg/mL methylthiazolyldiphenyl-tetrazolium bromide (MTT; Sigma M2128) was added and incubated for a further two hours, before mixing 1.1:1 with 10% w/v sodium dodecyl sulfate (SDS) to solubilise crystals and freezing the plate at -18 °C to stop the assay. […]
# [3] = system: human hepatoma cells (Huh7); assay: Human hepatoma viability assay (CellTiter-Blue); format: cell-based; conditions: for Huh7 viability, dose-response data points (Figure 3F): replicate data points, listed as BC5B
# Experimental: Huh7 hepatoma viability assays were conducted in the same manner as the P. berghei assays, with metabolic capacity (indicating viability) measured with a fluorescence microplate reader after incubation with CellTiter-Blue® (Promega) for 3 h.
# Appendix Fraser/Curtis et al. […]
# Human Hepatoma Viability Assays:
# The Huh7 hepatoma cell line (ATCC) was maintained under routine culture conditions in Dulbecco's Modified Eagle Medium (DMEM) containing 3.7 g/L NaHCO3 supplemented with 10% foetal bovine serum (FBS), 100 units/mL penicillin, and 100 μg/mL streptomycin at 37 °C in a humidified 5% CO2 incubator.
# Viability assays were performed in parallel to the P. berghei growth inhibition. 10,000 Huh7 cells were seeded in 96-well and dark-sided microplates (Greiner Bio One) and cultured at 37°C, 5% CO2 and 80% humidity. The next day, the media was replaced with compounds or solvent controls (DMSO) serially diluted in culture media. Media was partially replaced with new drug dilutions over the following two days. After 48 hours, CellTiter-Blue® (Promega) was added according to the manufacturer’s instructions and incubated for 3 hours. Fluorescence intensity was measured with 530/25 ex and 590/20 em in a Synergy HTX plate reader (Agilent).
smiles,measurement,setting,value
COc1cc(NC(C)CCCNC(=O)CCC(=O)O[C@H]2CC[C@H]3[C@@H]4CC=C5C[C@@H](O)CC[C@]5(C)[C@H]4CC[C@]23C)c2ncccc2c1 (stereo partly shown) [C-17-PQ],"Gametocyte stage III-IV viability, percentage of control","[1]; 1.562500000 uM, 1.5625 µM",98.2% and 92.41% and 99.85% and 96.05% and 86.9% and 96.5% and 96.91% and 95.26% and 86.31% and 88.01% and 87.16%
same,"Gametocyte stage III-IV viability, percentage of control","[1]; 3.125000000 uM, 3.125 µM",76.23% and 73.04% and 83.77% and 78.85% and 72.15% and 82.91% and 79.82% and 79.41% and 67.61% and 67.33% and 65.91%
same,"Gametocyte stage III-IV viability, percentage of control","[1]; 6.250000000 uM, 6.25 µM",47.47% and 48.87% and 53.06% and 57.19% and 51.38% and 37.08% and 52.02% and 49.97% and 47.91% and 50.9% (2×) and 52.03%
same,"Gametocyte stage III-IV viability, percentage of control","[1]; 12.500000000 uM, 12.5 µM",32.49% and 39.99% and 32.61% and 29.26% and 32.88% and 27.73% and 25.88% and 43.81%
same,"Gametocyte stage III-IV viability, percentage of control",[1]; 25.000000000 uM,17.71% and 16.11% and 15.11% and 33.28% and 21.89% and 14.3% and 17.64% and 12.08% and 12.7% and 13.79% and 6.704% and 7.271%
same,"Gametocyte stage III-IV viability, percentage of control",[1]; 50.000000000 uM,5.639% and 8.492% and 6.658% and 16.42% and 3.442% and -2.383% and -3.188% and -11.09% and -14.21% and 3.059% and -3.824% and -12.14%
same,"Gametocyte stage III-IV viability, percentage of control",[1]; 100.000000000 uM,3.289% and 0.9211% and -0.4605% and 9.774% and -7.24% and -17.63% and -19.17% and -25.26% and -26.31% and -15.93% and -26.87% and -31.48%
same,Fold reduction in IC50 compared to primaquine alone,[1],9 fold
same,viability at 0.390625 µM,"[1]; Plasmodium falciparum, read-out: Gametocyte stage III-IV viability, percentage of control, 0.390625000 uM, 48 h, replicate values, source data Fig. 2C",105%
same,viability at 0.78125 µM,"[1]; Plasmodium falciparum, read-out: Gametocyte stage III-IV viability, percentage of control, 0.781250000 uM, 48 h, replicate values, source data Fig. 2C",101%
same,viability at 1.5625 µM,"[1]; Plasmodium falciparum, read-out: Gametocyte stage III-IV viability, percentage of control, 1.562500000 uM, 48 h, replicate values, source data Fig. 2C",95%
same,viability at 3.125 µM,"[1]; Plasmodium falciparum, read-out: Gametocyte stage III-IV viability, percentage of control, 3.125000000 uM, 48 h, replicate values, source data Fig. 2C",72.4%
same,viability at 12.5 µM,"[1]; Plasmodium falciparum, read-out: Gametocyte stage III-IV viability, percentage of control, 12.500000000 uM, 48 h, replicate values, source data Fig. 2C",31.7%
same,IC50,"[1]; Plasmodium falciparum, read-out: IC50, P. falciparum gametocyte stage III-IV inhibition, 48 h",7.1 µM
same,IC50,[2],> 50 µM
same,"Huh7 viability, dose-response data points (Figure 3F)","[3]; 0.015241580 uM, 0.0152416 µM",98.89 and 98.22 and 98.39 and 94.42 and 103 and 100.2 and 102.1 and 98.78
same,"Huh7 viability, dose-response data points (Figure 3F)","[3]; 0.045724740 uM, 0.0457247 µM",96.51 and 98.69 and 94.1 and 96.38 and 90.79 and 82.31 and 84.01 and 89.64
same,"Huh7 viability, dose-response data points (Figure 3F)","[3]; 0.137174210 uM, 0.137174 µM",106.8 and 96.95 and 95.92 and 94.98 and 96.42 and 101.8 and 95.52 and 109.1
same,"Huh7 viability, dose-response data points (Figure 3F)","[3]; 0.411522630 uM, 0.411523 µM",95.23 and 97.59 and 96.23 and 88.28 and 94.64 and 96.4 and 105 and 96.39
same,"Huh7 viability, dose-response data points (Figure 3F)","[3]; 1.234567900 uM, 1.23457 µM",95.71 and 98.77 and 99.42 and 84.3 and 74.81 and 88.03 and 77.15 and 83 and 86.37
same,"Huh7 viability, dose-response data points (Figure 3F)","[3]; 3.703703700 uM, 3.7037 µM",88.28 and 89.97 and 90.65 and 52.83 and 57.73 and 57.82 and 45.17 and 51.57 and 42.91
same,"Huh7 viability, dose-response data points (Figure 3F)","[3]; 11.111111100 uM, 11.1111 µM",75.95 and 74.95 and 78.75 and 46.5 and 49.1 and 49.17 and 39.05 and 40.11 and 38.75
same,"Huh7 viability, dose-response data points (Figure 3F)","[3]; 33.333333300 uM, 33.3333 µM",79.29 and 78.52 and 76.32 and 47.53 and 46.72 and 48.69 and 34.13 and 38.39 and 36.44
same,"Huh7 viability, dose-response data points (Figure 3F)",[3]; 100.000000000 uM,80.41 and 81.45 and 81.11 and 48.76 and 54.16 and 52.59 and 35.21 and 39.74 and 37.9
same,IC50,"[3]; Homo sapiens, Huh-7, 48 h, read-out: IC50, human hepatoma inhibition (viability)",> 50 µM
